We go through 3 molecules from paper PMC11576293, “New series of 4,6-diaryl pyrimidines: facile synthesis and antiproliferative activity as dual EGFR/VEGFR-2 inhibitors” (Frontiers in Chemistry, 2024).

One series deals with MCF-7. As to the kind of experiment: Antiproliferative assay (MTT). The format is cell-based. The settings on record: Homo sapiens, MCF7, MCF-7 (breast), read-out: Antiproliferative activity IC50 ± SEM, MCF-7. The text has this: (§1) The MTT test was employed for this investigation ([Hisham et al., 2022]; [El-Sherief et al., 2019]; [Ramadan et al., 2020]). Table 2 presents the four cancer cell lines’ median inhibitory concentration (IC50) and GI50 (average IC50) values.
(§2) The MTT test was employed for this investigation ([Hisham et al., 2022]; [El-Sherief et al., 2019]; [Ramadan et al., 2020]). The IC50 values were derived from dose-response tests. The reported data are derived from at least two independent studies, each comprising three replicates per concentration. See Supplementary Material A1 for more details.
(§3) (in 0.1% DMSO) were added (in 200 μL medium to yield a final concentration of 0.1% v/v) to the wells of plates. A single compound was designated with four wells followed by incubation of plates for 96h at 37°C. After incubation, medium was removed completely from the plates followed by addition of MTT (0.4 mg/mL in medium) to each well and subsequent incubation of plates for 3h. MTT (along with the medium) was removed and DMSO (150μL) was added to each well of the culture plates, followed by vertexing and subsequent measurement of absorbance (at 540 nm) using microplate reader. The data are shown as percentage inhibition of proliferation in comparison with controls containing 0.1% DMSO.
(§4) 4.2.1.2. Assay for antiproliferative effect […]
(§5) (10%) and 1 µg/mL each of aprotinin, leupeptin and pepstatin for 120 min. The purification was performed either at 4 °C or on ice. To record autophosphorylation level, EGFR kinase assay was carried out on the basis of DELFIA/Time-Resolved Fluorometry. The compounds were first
(§6) (1 picture or pasted object on this page, not shown here)

The next series has as its system HT-29. In words: Antiproliferative assay (MTT). The format is cell-based. The settings on record: Homo sapiens, HT-29 (colon), read-out: Antiproliferative activity IC50 ± SEM, HT-29.
Source text: as §1, §2, §3, §4, §5, §6

The test system of the next series is A-549. In words: Antiproliferative assay (MTT). The format is cell-based. The settings on record: Homo sapiens, A549, A-549 (lung), read-out: Antiproliferative activity IC50 ± SEM, A-549.
Source text: as §1, §2, §3, §4, §5, §6

Another series concerns Panc-1. In words: Antiproliferative assay (MTT). The format is cell-based. The settings on record: Homo sapiens, Panc-1 (pancreatic), read-out: Antiproliferative activity IC50 ± SEM, Panc-1.
Source text: as §1, §2, §3, §4, §5, §6

Series [1] is described as follows: Cell viability assay (MTT) on normal cells. It counts as cell-based. The following applies: human, MCF-10A normal mammary gland epithelial cells, 4 days incubation. Here is the method:
This experiment examines the impact of the newly developed compounds 9–29 on normal cell lines to assess their safety level. The vitality of the investigated compounds was assessed using the MCF-10 A cell line, a normal human mammary gland epithelial cell line. Following 4 days of incubation on MCF-10 A cells with each examined compound at a concentration of 50 μM, the vitality of the cells was assessed using the MTT test ([Mahmoud et al., 2022]; [Mekheimer et al., 2022]).
This experiment examines the impact of the newly developed compounds 9–29 on normal cell lines to assess their safety level. The viability of 9–29 was assessed using the MCF-10 A cell line, a normal human mammary gland epithelial cell line. Following 4 days of incubation on MCF-10 A cells with each examined compound at a concentration of 50 μM, the vitality of the cells was assessed using the MTT test ([Mahmoud et al., 2022]; [Mekheimer et al., 2022]). Refer to Supplementary Material A1 for more details. […]
4.2. Biological evaluation
4.2.1. Cytotoxic activity using MTT Assay and evaluation of IC50
MTT assay was carried out to study the effect of compounds on mammary epithelial cells (MCF-10A). The medium in which cells were propagated contained Dulbecco's modified Eagle's medium (DMEM)/ Ham's F-12 medium (1:1) supplemented with epidermal growth factor (20 ng/mL), hydrocortisone (500 ng/mL), insulin (10 μg/mL), 2 mM glutamine and 10% foetal calf serum.
as §3, with “After every 2-3 days, the cells were passaged using trypsin ethylenediamine tetra acetic acid (EDTA). The cells were seeded at a density of 10^4 cells mL-1 in flat-bottomed culture plates containing 96 wells each. After 24 h, medium was removed from the plates and the compounds in (in 0.1%” for “(in 0.1%”, “0.1% DMSO. […]” for “0.1% DMSO.”

Series [2] concerns four cancer cell lines (A-549, MCF-7, Panc-1, HT-29). As to the kind of experiment: Antiproliferative assay, average over four cancer cell lines. The following applies: Homo sapiens; average of the four cancer cell lines; read-out: Average IC50 (GI50). It counts as cell-based. An excerpt:
Table 2 presents the four cancer cell lines’ median inhibitory concentration (IC50) and GI50 (average IC50) values.
The IC50 values were derived from dose-response tests. The reported data are derived from at least two independent studies, each comprising three replicates per concentration. See Supplementary Material A1 for more details.

Another series deals with Bcl-2. As to the kind of experiment: Bcl-2 inhibition assay. The format is cell-based, human. The settings on record: A-549 cell line. On the procedure: 4.2.8. Bcl-2 inhibition assay
Mix all reagents thoroughly without foaming before use. Wash the microwells twice with approximately 300 μL Wash Buffer per well with thorough aspiration of microwell contents between washes. Take caution not to scratch the surface of the microwells. After the last wash, empty the wells and tap microwell strips on absorbent pad or paper towel to remove excess Wash Buffer. Use the microwell strips immediately after washing or place upside down on a wet absorbent paper for not longer than 15 minutes. […] Add 100 μL of Sample […]
Diluent in duplicate to all standard wells and to the blank wells. Prepare standard (1:2 dilution) in duplicate ranging from 32 ng/mL to 0.5 ng/mL. Add 100 μL of Sample Diluent, in duplicate, to the blank wells. Add 80 μL of Sample Diluent, in duplicate, to the sample wells. Add 20 μL of each Sample, in duplicate, to the designated wells. Add 50 μL of diluted biotin-conjugate to all wells, including the blank wells. Cover with a plate cover and incubate at room temperature, on a microplate shaker at 100 rpm if available, for 2 hours. Remove plate cover and empty the wells.
Wash microwell strips 3 times as described in step 2. Add 100 μL of diluted Streptavidin-HRP to all wells, including the blank wells. Cover with a plate cover and incubate at room temperature, on a microplate shaker at 100 rpm if available, for 1 hour. Remove plate cover and empty the wells.
Wash microwell strips 3 times as described in step 2. Proceed to the next step. Pipette 100 μl of mixed TMB Substrate Solution to all wells, including the blanks. Incubate the microwell strips at room temperature (18° to 25°C) for about 15 minutes, if available on a rotator set at 100 rpm.
Avoid direct exposure to intense light. The point, at which the substrate reaction is stopped, is often determined by the ELISA reader. Many ELISA readers record absorbance only up to 2.0
O.D. Therefore, the color development within individual microwells must be watched by the person running the assay and the substrate reaction stopped before positive wells are no longer properly detectable. Stop the enzyme reaction by quickly pipetting 100 μL of Stop Solution into each well, including the blank wells. It is important that the Stop Solution is spread quickly and uniformly throughout the microwells to completely inactivate the enzyme. Results must be read immediately after the Stop Solution is added or within one hour i f the microwell strips are stored at 2 - 8°C in the dark. Read absorbance of each microwell on a spectrophotometer using 450 nm as the primary wavelength.

The subject of the next series is Bax. As to the kind of experiment: Bax activation assay. The format is cell-based, human. The settings on record: for Bax Conc: A-549 cancer cells. Here is the method: 4.2.7. Bax activation assay
Bring all reagents, except the human Bax-α Standard, to room temperature for at least 30 minutes prior to opening. The human Bax-α Standard solution should not be left at room temperature for more than 10 minutes. All standards, controls and samples should be run in duplicate. Refer to the Assay Layout Sheet to determine the number of wells to be used and put any remaining wells with the desiccant back into the pouch and seal the ziploc. Store unused wells at 4 °C. Pipet 100 μL of Assay Buffer into the S0 (0 pg/mL standard) wells. Pipet 100 μL of Standards #1 through #6 into the appropriate wells. Pipet 100 μL of the Samples into the appropriate wells. Tap the plate gently to mix the contents. Seal the plate and incubate at room temperature on a plate shaker for 1 hour at ~500 rpm. Empty the contents of the wells and wash by adding 400 μL of wash solution to every well. Repeat the wash 4 more times for a total of 5 washes. After the final wash, empty or aspirate the wells and firmly tap the plate on a lint free paper towel to remove any remaining wash buffer.
Pipet 100 μL of yellow Antibody into each well, except the Blank. Seal the plate and incubate at room temperature on a plate shaker for 1 hour at ~500 rpm. Empty the contents of the wells and wash by adding 400 μL of wash solution to every well. Repeat the wash 4 more times for a total of 5 washes. After the final wash, empty or aspirate the wells and firmly tap the plate on a lint free paper towel to remove any remaining wash buffer. Add 100 μL of blue Conjugate to each well, except the Blank. Seal the plate and incubate at room temperature on a plate shaker for 30 minutes […]
Pipet 100 μL of Substrate Solution into each well. Incubate for 30 minutes at room temperature on a plate shaker at ~500 rpm. Pipet 100 μL Stop Solution to each well. Blank the plate reader against the Blank wells, read the optical density at 450 nm. Calculate the average net Optical Density (OD) bound for each standard and sample by subtracting the average Blank OD from the average OD for each standard and sample. Using linear graph paper, plot the Average Net OD for each standard versus Bax concentration in each standard. Approximate a straight line through the points.
The concentration of Bax in the unknowns can be determined by interpolation. […]

On to `COc1ccc(-c2cc(-c3cccc(OC)c3)nc(SCc3ccccc3)n2)cc1` [Compound 21, 2-(Benzylthio)-6-(3-methoxyphenyl)-4-(4-methoxyphenyl)pyrimidine], for which the melting point was 245 to 247 °C. Also, the IC50 with MCF-7 stood at 86 ± 8 nM. For the same molecule, the half-inhibitory concentration (IC50) with HT-29 was 82 ± 8 nM. For the same molecule, in the series with A-549, the IC50 worked out at 83 ± 7 nM. For the same molecule, the IC50 in the series with Panc-1 was 82 ± 8 nM. This molecule returned a viability at 4 days, 50 µM in series [1] of 89%. Moreover, the IC50 in [2] is 83 nM.

With `C#Cc1cccc(Nc2ncnc3cc(OCCOC)c(OCCOC)cc23)c1` [Erlotinib, reference compound], the half-maximal inhibitory concentration (IC50) in the series with MCF-7 turned out to be 40 ± 3 nM; with HT-29, 30 ± 3 nM; with A-549 it was 30 ± 3 nM; with Panc-1, 30 ± 3 nM.

`CN[C@@H]1C[C@H]2O[C@@](C)([C@@H]1OC)n1c3ccccc3c3c4c(c5c6ccccc6n2c5c31)C(=O)NC4` [Staurosporine, reference compound]: in the series on Bcl-2, the “Bcl-2 Conc” value is on record as 1.10 ng/mL. Moreover, in the series with Bcl-2 (versus control), the “Bcl-2 Fold reduction” value came to 5 fold. For the same molecule, the “Bax Conc” value in the series with Bax is 280 ± 5 pg/mL; in the series on Bax (listed as staurosporine) it was 280 pg/mL. The “Bax Fold change” value in the series on Bax (compared to untreated A-549 cancer cells) amounted to 35 fold.

In general, IC50 refers to the concentration at which inhibition is half-maximal. One may read the melting point as the temperature of the solid-liquid transition. One may read the viability as a per cent measure of how many cells are alive, often set against a control. Lower therefore signals a greater loss of cells.
